Measurements from patent publication US12410208B2, “(2-acetamidyl)thio-beta-D-galactopyranoside derivatives” (Idorsia Pharmaceuticals Ltd, priority 2020, dated 2025).
Where two headings read alike, the source gives them in different places.

Key:
[1] = molecular target: biotinylated human Gal-3 (hGal-3) (Homo sapiens, UniProt P17931); assay: Competitive binding assay: biotinylated hGal-3 binding to microplate-adsorbed asialofetuin (ASF), spectrophotometric
Experimental: If not explicitly mentioned otherwise, the inhibition data refer to the binding of biotinylated human Gal-3 (hGal-3).
(§1) Biological Assay Evaluation of Compound Inhibitory Activity (IC50)
The inhibitory activity of compounds is determined in competitive binding assays.
Briefly, compounds are serially diluted in DMSO (working dilutions).
(§2) Plates are incubated for 3 hours at 4° C., then washed with cold assay buffer (3×50 uL), incubated for 1 hour with 25 μL/well of a streptavidin-peroxidase solution (diluted in assay buffer to 80 ng/mL) at 4° C., followed by further washing steps with assay buffer (3×50 uL). Finally, 25 μL/well of ABTS substrate is added.
(§3) The calculated IC50 values may fluctuate depending on the daily assay performance. Fluctuations of this kind are known to those skilled in the art. IC50 values from several measurements are given as mean values.

human Gal-1 (hGal-1) = human Gal-1 (hGal-1) (Homo sapiens, UniProt P09382); assay: Competitive binding assay: biotinylated hGal-1 binding to microplate-adsorbed asialofetuin (ASF), spectrophotometric; conditions: hGal-1 binding to asialofetuin; Table 15; R and S epimers of selected Examples also listed; read-out: IC50 (Galectin-1 inhibition)
human Gal-1 (hGal-1), sequence (P09382 whole entry): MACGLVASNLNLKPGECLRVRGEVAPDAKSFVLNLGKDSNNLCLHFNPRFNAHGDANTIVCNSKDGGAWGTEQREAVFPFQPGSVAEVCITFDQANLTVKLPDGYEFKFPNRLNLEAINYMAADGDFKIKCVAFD
Experimental: as §1
The inhibitory activity of compounds is determined in competitive binding assays. This spectrophotometric assay measures the binding of biotinylated human Gal-3 (hGal-3) or human Gal-1 (hGal-1), respectively, to a microplate-adsorbed glycoprotein, asialofetuin (ASF) (Proc Natl Acad Sci USA. 2013 Mar. 26; 110(13):5052-7.).
Briefly, compounds are serially diluted in DMSO (working dilutions). ASF-coated 384well plates are supplemented with 22.8 μL/well of biotinylated hGal-3 or hGal-1 in assay buffer (i.e. 300-1000 ng/mL biotinylated hGal-3 or hGal-1) to which 1.2 μL of compound working dilutions are added and mixed.
as §2, §3

[2] = Gal-3 inhibition, Table 4, read-out: IC50
[3] = Table 8, hGal-3, read-out: IC50 (Gal-3 inhibition)
[4] = Gal-3 inhibition, Table 5, read-out: IC50

biotinylated human Gal-3 (hGal-3), sequence (P17931 whole entry): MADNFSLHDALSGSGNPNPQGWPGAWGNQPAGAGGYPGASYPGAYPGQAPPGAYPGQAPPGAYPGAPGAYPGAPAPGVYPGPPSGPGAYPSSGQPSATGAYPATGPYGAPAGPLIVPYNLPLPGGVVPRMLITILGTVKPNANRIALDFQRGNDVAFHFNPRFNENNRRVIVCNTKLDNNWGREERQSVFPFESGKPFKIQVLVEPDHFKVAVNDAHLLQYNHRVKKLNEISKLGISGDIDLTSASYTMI

Row | SMILES | IC50 (human Gal-1 (hGal-1)) [nM] | IC50 [1, 4] [nM] | further results
1 | CN(CC1CCOCC1)C(=O)C(S[C@@H]1O[C@H](CO)[C@H](O)[C@H](n2cc(-c3cc(F)c(F)c(F)c3)nn2)[C@H]1O)C1(O)CCOCC1 (stereo partly drawn) [Example 2.41.213., 2-(((2S,3R,4S,5R,6R)-3,5-dihydroxy-6-(hydroxymethyl)-4-(4-(3,4,5-trifluorophenyl)-1H-1,2,3-triazol-1-yl)tetrahydro-2H-pyran-2-yl)thio)-2-(4-hydroxytetrahydro-2H-pyran-4-yl)-N-methyl-N-((tetrahydro-2H-pyran-4-yl)methyl)acetamide] | 200 | – | IC50 [1, 2]: 80 nM
2 | CN(CC(C)(C)C)C(=O)C(S[C@@H]1O[C@H](CO)[C@H](O)[C@H](n2cc(-c3cc(F)c(F)c(F)c3)nn2)[C@H]1O)C1(O)CCCC1 (stereo partly drawn) [Example 2.38.228., 2-(((2S,3R,4S,5R,6R)-3,5-Dihydroxy-6-(hydroxymethyl)-4-(4-(3,4,5-trifluorophenyl)-1H-1,2,3-triazol-1-yl)tetrahydro-2H-pyran-2-yl)thio)-2-(1-hydroxycyclopentyl)-N-methyl-N-neopentylacetamide] | 170 | 150 | –
3 | CN(C(=O)C(S[C@@H]1O[C@H](CO)[C@H](O)[C@H](n2cc(-c3cc(F)c(F)c(F)c3)nn2)[C@H]1O)C1(O)CCOCC1)c1ccccc1 (stereo partly shown) [Example 2.41.231.] | 80 | – | IC50 ([1]; Table 9, hGal-3, read-out: IC50 (Gal-3 inhibition)): 110 nM
4 | CN(CC1CC1)C(=O)[C@@H](S[C@@H]1O[C@H](CO)[C@H](O)[C@H](n2cc(-c3cc(F)c(F)c(F)c3)nn2)[C@H]1O)C1(O)CC(F)(F)C1 [Example 2.33.218S., (S)-N-(Cyclopropylmethyl)-2-(3,3-difluoro-1-hydroxycyclobutyl)-2-(((2S,3R,4S,5R,6R)-3,5-dihydroxy-6-(hydroxymethyl)-4-(4-(3,4,5-trifluorophenyl)-1H-1,2,3-triazol-1-yl)tetrahydro-2H-pyran-2-yl)thio)-N-methylacetamide] | 60 | 40 | –
5 | CN1CCC(O)(C(S[C@@H]2O[C@H](CO)[C@H](O)[C@H](n3cc(-c4cc(F)c(F)c(F)c4)nn3)[C@H]2O)C(=O)N2CCCCC2)CC1 (stereo partly drawn) [Example 2.40.208., 2-(((2S,3R,4S,5R,6R)-3,5-Dihydroxy-6-(hydroxymethyl)-4-(4-(3,4,5-trifluorophenyl)-1H-1,2,3-triazol-1-yl)tetrahydro-2H-pyran-2-yl)thio)-2-(4-hydroxy-1-methylpiperidin-4-yl)-1-(piperidin-1-yl)ethan-1-one] | 50 | – | IC50 [1, 2]: 30 nM
6 | CN(CC(F)(F)F)C(=O)C(S[C@@H]1O[C@H](CO)[C@H](O)[C@H](n2cc(-c3cc(F)c(F)c(F)c3)nn2)[C@H]1O)C1(O)CCC1 (stereo partly drawn) [Example 2.34.219., 2-(((2S,3R,4S,5R,6R)-3,5-Dihydroxy-6-(hydroxymethyl)-4-(4-(3,4,5-trifluorophenyl)-1H-1,2,3-triazol-1-yl)tetrahydro-2H-pyran-2-yl)thio)-2-(1-hydroxycyclobutyl)-N-methyl-N-(2,2,2-trifluoroethyl)acetamide] | 640 | 260 | –
7 | O=C([C@H](S[C@@H]1O[C@H](CO)[C@H](O)[C@H](n2cc(-c3cc(F)c(F)c(F)c3)nn2)[C@H]1O)C1(O)CCC1)N1CCC1 [Example 2.34.206R., (R)-1-(Azetidin-1-yl)-2-(((2S,3R,4S,5R,6R)-3,5-dihydroxy-6-(hydroxymethyl)-4-(4-(3,4,5-trifluorophenyl)-1H-1,2,3-triazol-1-yl)tetrahydro-2H-pyran-2-yl)thio)-2-(1-hydroxycyclobutyl)ethan-1-one] | 6910 | 1800 | –
8 | CO[C@@H]1[C@@H](n2cc(-c3cc(F)c(F)c(F)c3)nn2)[C@@H](O)[C@@H](CO)O[C@H]1S[C@H](C(=O)N1CCC(F)(F)CC1)C1(O)CCC2(CCOCC2)CC1 [Example 2.72.226S.I., (S)-1-(4,4-Difluoropiperidin-1-yl)-2-(((2S,3R,4S,5R,6R)-5-hydroxy-6-(hydroxymethyl)-3-methoxy-4-(4-(3,4,5-trifluorophenyl)-1H-1,2,3-triazol-1-yl)tetrahydro-2H-pyran-2-yl)thio)-2-(9-hydroxy-3-oxaspiro[5.5]undecan-9-yl)ethan-1-one] | 100 | – | IC50 ([1]; Table 13, hGal-3, read-out: IC50 (Gal-3 inhibition)): 40 nM
9 | CCN(C)C(=O)C(S[C@@H]1O[C@H](CO)[C@H](O)[C@H](n2cc(-c3cc(F)c(F)c(F)c3)nn2)[C@H]1OC)C1(O)CCC(F)(F)CC1 (stereo partly drawn) [Example 2.44.203.I., 2-(4,4-Difluoro-1-hydroxycyclohexyl)-N-ethyl-2-(((2S,3R,4S,5R,6R)-5-hydroxy-6-(hydroxymethyl)-3-methoxy-4-(4-(3,4,5-trifluorophenyl)-1H-1,2,3-triazol-1-yl)tetrahydro-2H-pyran-2-yl)thio)-N-methylacetamide] | 120 | – | IC50 ([1]; Table 12, hGal-3, read-out: IC50 (Gal-3 inhibition)): 40 nM
10 | CCN(C(=O)[C@H](S[C@@H]1O[C@H](CO)[C@H](O)[C@H](n2cc(-c3cc(F)c(F)c(F)c3)nn2)[C@H]1OC)C1(O)CCC(F)(F)CC1)C1CC1 [Example 2.44.238R.I.] | > 100000 | – | IC50 ([1]; Table 10, hGal-3, read-out: IC50 (Gal-3 inhibition)): 1000 nM

The next lines start with results.

Row | IC50 (human Gal-1 (hGal-1)) [nM] | IC50 [1, 4] [nM] | SMILES | further results
11 | 180 | – | CCN(C)C(=O)C(S[C@@H]1O[C@H](CO)[C@H](O)[C@H](n2cc(-c3cc(C)cc(F)c3)nn2)[C@H]1O)C1(O)CCOCC1 (stereo partly drawn) [Example 20.41.203., N-ethyl-2-(((2S,3R,4S,5R,6R)-4-(4-(3-Fluoro-5-methylphenyl)-1H-1,2,3-triazol-1-yl)-3,5-dihydroxy-6-(hydroxymethyl)tetrahydro-2H-pyran-2-yl)thio)-2-(4-hydroxytetrahydro-2H-pyran-4-yl)-N-methylacetamide] | IC50 ([1]; Table 11, hGal-3, read-out: IC50 (Gal-3 inhibition)): 60 nM
12 | 10500 | – | CCN(C)C(=O)[C@H](S[C@@H]1O[C@H](CO)[C@H](O)[C@H](n2cc(-c3cc(F)c(F)c(F)c3)nn2)[C@H]1O)C1(O)CCN(C(=O)OC)CC1 [Example 2.50.203R., (R)-Methyl 4-(1-(((2S,3R,4S,5R,6R)-3,5-dihydroxy-6-(hydroxymethyl)-4-(4-(3,4,5-trifluorophenyl)-1H-1,2,3-triazol-1-yl)tetrahydro-2H-pyran-2-yl)thio)-2-(ethyl(methyl)amino)-2-oxoethyl)-4-hydroxypiperidine-1-carboxylate] | IC50 [1, 3]: 4450 nM
13 | 420 | 90 | CCN(C)C(=O)C(S[C@@H]1O[C@H](CO)[C@H](O)[C@H](n2cc(-c3cc(F)c(F)c(F)c3)nn2)[C@H]1O)C1(O)CCOCC1 (stereo partly drawn) [Example 2.41.203., 2-(((2S,3R,4S,5R,6R)-3,5-Dihydroxy-6-(hydroxymethyl)-4-(4-(3,4,5-trifluorophenyl)-1H-1,2,3-triazol-1-yl)tetrahydro-2H-pyran-2-yl)thio)-N-ethyl-2-(4-hydroxytetrahydro-2H-pyran-4-yl)-N-methylacetamide] | –
14 | 9900 | 4470 | CCN(CC1CC1)C(=O)C(S[C@@H]1O[C@H](CO)[C@H](O)[C@H](n2cc(-c3cc(F)c(F)c(F)c3)nn2)[C@H]1O)C1(O)CCOCC1 (stereo partly drawn) [Example 2.41.236., N-(Cyclopropylmethyl)-2-(((2S,3R,4S,5R,6R)-3,5-dihydroxy-6-(hydroxymethyl)-4-(4-(3,4,5-trifluorophenyl)-1H-1,2,3-triazol-1-yl)tetrahydro-2H-pyran-2-yl)thio)-N-ethyl-2-(4-hydroxytetrahydro-2H-pyran-4-yl)acetamide] | –
15 | 90 | 120 | CN(CC(C)(C)C)C(=O)[C@@H](S[C@@H]1O[C@H](CO)[C@H](O)[C@H](n2cc(-c3cc(F)c(F)c(F)c3)nn2)[C@H]1O)C1(O)CCC1 [Example 2.34.228S., (S)-2-(((2S,3R,4S,5R,6R)-3,5-Dihydroxy-6-(hydroxymethyl)-4-(4-(3,4,5-trifluorophenyl)-1H-1,2,3-triazol-1-yl)tetrahydro-2H-pyran-2-yl)thio)-2-(1-hydroxycyclobutyl)-N-methyl-N-neopentylacetamide] | –
16 | 33900 | – | CCN(C)C(=O)[C@H](S[C@@H]1O[C@H](CO)[C@H](O)[C@H](n2cc(-c3cc(F)c(F)c(F)c3)nn2)[C@H]1O)C1(O)CCN(S(C)(=O)=O)CC1 [Example 2.47.203R., (R)-2-(((2S,3R,4S,5R,6R)-3,5-Dihydroxy-6-(hydroxymethyl)-4-(4-(3,4,5-trifluorophenyl)-1H-1,2,3-triazol-1-yl)tetrahydro-2H-pyran-2-yl)thio)-N-ethyl-2-(4-hydroxy-1-(methylsulfonyl)piperidin-4-yl)-N-methylacetamide] | IC50 [1, 3]: 6770 nM
17 | 110 | 90 | CN(CC(C)(C)F)C(=O)[C@@H](S[C@@H]1O[C@H](CO)[C@H](O)[C@H](n2cc(-c3cc(F)c(F)c(F)c3)nn2)[C@H]1O)C1(O)CCC1 [Example 2.34.222S., (S)-2-(((2S,3R,4S,5R,6R)-3,5-Dihydroxy-6-(hydroxymethyl)-4-(4-(3,4,5-trifluorophenyl)-1H-1,2,3-triazol-1-yl)tetrahydro-2H-pyran-2-yl)thio)-N-(2-fluoro-2-methylpropyl)-2-(1-hydroxycyclobutyl)-N-methylacetamide] | –
